Laboratory results published in US8410273B2, “Cyclic compound having substituted phenyl group” (Daiichi Sankyo Company, Limited, priority 2009, dated 2013).

test system: female F344 rats; test: Effect on bone density (femur, DXA) after oophorectomy or sham surgery; assay type: in vivo; conditions: at 3 mg/kg or less, orally once a day, six days a week, six weeks
Method: Eight to 12 week old female F344 rats were purchased from Charles River Laboratories and used in the following experiment. Rats were anesthetized with an intraperitoneal administration of 40 mg/kg of Somnopentyl (Kyoritsu Seiyaku Corporation), and then oophorectomy or sham surgery was performed. From the day after surgery, a suspension of the test compound in a 0.5% methyl cellulose solution (Wako Pure Chemical Industries, Ltd. Cat. No. 133-14255) was orally administered once a day, six days a week. Six weeks after administration, the rats were euthanized by removal of whole blood from the lower abdominal aorta under Somnopentyl anesthesia, and the left and right femur was excised.
After removal of soft tissues, the bone density of the femur thus excised was measured by a DXA apparatus, DCS-600R (Aloka Co., Ltd.). The bone density was assessed in the whole femur as well as in three equal sections of the whole femur, namely the proximal end, the shaft, and the distal end.

Row | Compound | bone density of the femur
1 | NC(=O)c1ccc2cncc(-c3ccc(OCCOC4CCOCC4)cc3)c2n1 [Example 9, 8-{4-[2-(Tetrahydro-2H-pyran-4-yloxy)ethoxy]phenyl}-1,6-naphthyridine-2-carboxamide] | significantly increased the bone density
2 | Cn1ccc2cc(-c3cncc4ccc(C(N)=O)cc34)ccc21 [Example 33] | significantly increased the bone density
3 | NC(=O)c1ccc2cncc(-c3ccc(OCCO)cc3)c2c1 [Example 36] | significantly increased the bone density
4 | NC(=O)c1ccc2cncc(-c3ccc(Cl)cc3)c2c1 [Example 118] | significantly increased the bone density
